Measurements from patent publication US20050124618A1, “Methods of modulating angiogenesis and cancer cell proliferation” (priority 2003, published 2005).
“Also recorded” adds a separate entry of the source.

How the values were obtained:
[1] = tested on: rat cornea; test: Rat cornea pocket angiogenesis assay (growth factor pellets); type: in vivo; details: for angiogenic response to growth factor alone: 250 ng growth factor per pellet
Method: (i) Preparation of sustained-release polymer: Sustained-release polymer pellets were prepared by making a 1:1 mix of a 12% solution in ethanol of the polymer (Hydron polyhydroxyethylmethacrylate), with saline containing the growth factors. The growth factors bFGF, VEGF, and EGF were dissolved at a concentration of 125 ng/μl. […] 2 μl of these solutions were added to each pellet. Thus, a pellet containing 250 ng of a single growth factor was implanted at random in the right or left eye. The other eye was implanted with a pellet containing the same dose of growth factor+HET0016. In some rats the pellet contained VEGF alone and VEGF+DDMS. 20 μg of the stable 20-HETE agonist analog WIT003 was implanted in one eye to determine whether it induces angiogenesis. […] 9 μl of the 1:1 Hydron/treatment mixture was placed on the ends of 1.5-cm rods. Each pellet contained 250 ng of its respective growth factor. For bFGF we used sucralfate to stabilize and allow sustained release of this growth factor (Volkin D B et al., Biochim Biophys Acta 1993, 1203:18-26). After drying the pellets for 1 hour, they were ready to be implanted into the cornea of rats.
(ii) Pellet implantation: The rats were anesthetized IM with ketamine (80 mg/kg) and xylazine (10 mg/kg). The eyes were topically anesthetized with 0.5% proparacaine (Ophthetic, Alcon, Tex.) and the globes proptosed with a jeweler's forceps. Using an operating microscope, a central intrastromal linear keratotomy, approximately 1.5 mm in length, was performed with a surgical blade (Bard-Parker #11; Becton Dickinson, Franklin Lake, N.Y.) parallel to the insertion of the lateral rectus muscle. A curved iris spatula (No. 10093-13, Fine Science Tools, Belmont, Calif.) approximately 1.5 mm wide and 5 mm long was inserted under the lip of the incision and gently pushed through the stroma toward the temporal limbus of the eye. The distance between the limbus and the base of the pocket was kept at 1.0±0.1 mm. The pellet was advanced to the temporal end of the pocket. Antibiotic ointment (erythromycin) was applied to the anterior surface of the eye.
(iv) Quantitation of corneal neovascularization: Seven days after pellet implantation, the rats were deeply anesthetized as previously described with ketamine and xylazine. The left ventricle was cannulated and the animal was perfused with 20-25 ml saline through the left ventricle followed by 20-25 ml India ink (waterproof drawing ink, Sanford, Bellwood, Ill.). The eyes were marked for orientation, enucleated and placed in 4% formalin for 24 hours. The cornea was dissected free from the surrounding globe and underlying iris, bisected, and loosely mounted between two glass slides, thus gently flattening the cornea. These flat mounts were examined microscopically using a Nikon Diaphot Epi-fluor 2 microscope attached to a CCD video camera and the images were digitized and saved using a computer.
Neovascularization was determined by comparing total vessel length in the control and experimental eyes. Vessel length was determined by tracing each vessel from the limbus to the pellet. Total length is the sum of these values in pixels and was determined using conventional image analysis software (Sigma Scan Pro, SPSS, Chicago, Ill.)

[2] = tested on: 9L rat gliosarcoma cells; test: 9L cell proliferation assay (cell counting); type: cell-based
Method: (§1) Culture Conditions: 9L rat gliosarcoma cells were purchased from ATC (Gaithersburg, Md.) and were maintained in DMEM (Invitrogen) supplemented with 10% heat-inactivated fetal bovine serum (FBS), penicillin (10 IU/ml), streptomycin (10 μg/ml) and 10% non-essential amino acids (all purchased from Invitrogen). Cells were maintained at 37° C. in a humidified incubator containing 5% CO2. They were grown in medium containing 10% FBS, which was then replaced with serum-free medium (give type and source) where 9L cells grow exponentially.
Cell Proliferation Assays: Proliferation studies were performed with cultures plated at a density that ensured exponential growth for at least 5 days. Growth medium were generally replaced by serum free medium 24 hr after plating. […] The concentration of the ethanol added to the media never exceeded 0.1%. Cells were harvested by exposure to a solution of 0.05% Trypsin/EDTA and counted using a hemocytometer.

[3] = tested on: U251 human glioma cells; test: U251 cell proliferation assay (cell counting); type: cell-based; details: for increase of U251 cell proliferation: 1 μM agonist, 48 hr, serum-starved
Method: as §1, with “Cells” for “9L rat gliosarcoma cells”, “routinely” for “purchased from ATC (Gaithersburg, Md.) and were”, “medium” for “medium (give type and source)”, “U251” for “9L”, “exponentially. Treatments were initiated one day after serum removal.” for “exponentially.”
Cell Proliferation Assays: Proliferation studies were performed with cultures plated at a density that ensured exponential growth for at least 5 days. Growth medium was generally replaced by serum-free medium 24 hr after plating. Cells were treated with various concentrations of a given compounds for 24 or 48 hr as described in the Methods. […] Organic solvent never exceeded 0.1% of total culture volume. Cells were harvested by exposure to 0.05% trypsin/EDTA and counted using a hemocytometer.

[4] = tested on: 20-HETE; details: cited from earlier work
[5] = tested on: HUVECs; test: HUVECs proliferation assay (CellTiter96 AQueous One); type: cell-based, human
Method: HUVECs were seeded onto a 96-well plate at 1×10^4 cells/well. […] Organic solvent concentration never exceeded 0.1% of total culture volume. […] 20 μl of Aqueous One reagent was added to the 100 μl medium in each well. The plates were incubated for 2 hours at 37° C. in a humidified incubator. Absorbance was recorded at 490 nm using a 96-well Bio Kinetics Reader EL340 (Bio-TEK, Winooski, Vt.). The data represent changes in percent absorbance of treated cultures compared with control cells. Three different experiments were carried out, and each point was determined in triplicate.

[6] = up to 40 μg palmitic acid per pellet

EGF: epidermal growth factor, positive control for proliferation
angiogenic response to growth factor alone [1]: Vigorous angiogenic responses | increase of proliferation of 9L cells ([2]; EGF 200 ng/ml): about 30% | effect on number of 9L cells ([2]; EGF 200 ng/ml, 24 and 48 hrs): increased the number of cells

bFGF: basic fibroblast growth factor, purchased from R&D Systems
angiogenic response to growth factor alone [1]: Vigorous angiogenic responses

O=C(O)CCC/C=C\CCCCCCC/C=C\CCCCCO [20-hydroxyeicosa-5(Z),14(Z)-dienoic acid]
reversal of HET0016 blockade of U251 cell proliferation ([3]; 1 μM 20-HETE agonist + HET0016): about 70% | increase of U251 cell proliferation [3]: about 20%

C#CCCCCCCCCCCCCCCCC(=O)O [17-ODYA, 17-Octadecynoic acid]
ability to reduce 20-HETE levels in vivo [4]: reduce 20-HETE levels in vivo

O=C(O)CCCC/C=C\CCCCCCC/C=C\CCCCO [WIT003, 20-hydroxyeicosa-6(Z),15(Z)-dienoic acid]
effect on proliferation of HUVECs ([5]; 1 μM WIT003, 48 hours): increased the proliferation rate; also recorded: increased proliferation of the cells | angiogenic response to the 20-HETE analog alone ([1]; 20 μg WIT003 per pellet, 7 days): induced an angiogenic response | stimulatory effect on proliferation of U251 cells ([3]; 0.1 μM WIT003, 48 hr): has no more stimulatory effect on proliferation of U251 cells than 50 ng/ml EGF | rescue of U251 cells from the anti-proliferative effects of HET0016 ([3]; 1 μM WIT003 + 10 μM HET0016, 48 h): reverses the effects of HET0016; also recorded: can rescue | U251 proliferation with WIT003 and HET0016, increase above HET0016 alone ([3]; 1 μM WIT003 + 10 μM HET0016, 2 days): about 70% | U251 growth stimulation compared with EGF ([3]; 1 μM WIT003, 48 h): comparable to the growth stimulating effect induced by 200 ng/ml EGF; also recorded: as much as 200 ng/ml EGF | increase of U251 cell proliferation [3]: 20% | stimulation of 9L proliferation compared with EGF ([2]; 1 μM WIT003): A similar degree of stimulation | rescue of 9L cells from the inhibitory actions of HET0016 ([2]; 1 μM WIT003 + 10 μM HET0016): partially rescued

VEGF
effect on proliferation of HUVECs ([5]; 250 ng/ml VEGF alone): stimulated proliferation | angiogenic response to growth factor alone [1]: marked neovascularization response; also recorded: Vigorous angiogenic responses

CCCCCCCCCCCCCCCC(=O)O [palmitic acid]
angiogenic effect of fatty acid control alone [1, 6]: had no effect by itself | influence of fatty acid control on angiogenic responses to VEGF [1, 6]: no difference in angiogenic responses to VEGF | influence of fatty acid control on angiogenic responses to VEGF ([1]; up to 40 μg palmitic acid per pellet, listed as Palmitic acid): showed no ability to influence angiogenic responses to VEGF
